Results taken from patent US20040175448A1, “Pharmaceutical compositions” (Mars, Incorporated, priority 1994, published 2004).

Test: Rancimat oxidative stability test of peanut oil
Settings: Rancimat 100° C., 20 cc/min air, average of duplicate
Description: The procedures described in Examples 1, 2 and 3 were used to prepare cocoa extracts which were manipulated further to produce two fractions from gel permeation chromatography. These two fractions are actually combined fractions A through C, and D and E (See FIG. 1) whose antioxidant properties were compared against the synthetic antioxidants BHA and BHT.
Peanut Oil was pressed from unroasted peanuts after the skins were removed. Each test compound was spiked into the oil at two levels about 100 ppm and about 20 ppm, with the actual levels given in Table 7.50 μL of methanol solubilized antioxidant was added to each sample to aid in dispersion of the antioxidant. A control sample was prepared with 50 μL of methanol containing no antioxidant.
The samples were evaluated in duplicate, for oxidative stability using the Rancimat stability test at 100° C. and 20 cc/min of air. Experimental parameters were chosen to match those used with the Active Oxygen Method (AOM) or Swift Stability Test (Van Oosten et al., 1981). Results are reported in Table 8 as hours required to reach a peroxide level of 100 meq.

[1] = 20 ppm (actual 20-24 ppm, Table 7)
[2] = 100 ppm (actual 100-120 ppm, Table 7)

SMILES	Oxidative stability of peanut oil: hours required to reach a peroxide level of 100 meq [1] [h]	Oxidative stability of peanut oil: hours required to reach a peroxide level of 100 meq [2] [h]
COc1ccc(O)c(C(C)(C)C)c1 [BHA, Butylated Hydroxyanisole]	13.5 ± 2.1	14.0 ± 1.4
Cc1cc(C(C)(C)C)c(O)c(C(C)(C)C)c1 [BHT, Butylated Hydroxytoluene]	16.5 ± 2.1	12.5 ± 2.1
